From a melting point compilation (Tetko et al.; mined from patent text by program, amines drawn as free bases though some values may be those of a salt)

Structure (SMILES) | melting point
CN1c2ccc(Cl)cc2C(c2ccccc2[N+](=O)[O-])=Nc2cccnc21 | 165 to 166 °C
COc1ccc(NCCCOc2ccc3cc(OCCCNc4ccc(OC)cc4)ccc3c2)cc1 | 129 °C
O=C(O)c1cc(-c2ccc(Cl)cc2)n(-c2ccc(Cl)cc2Cl)n1 | 185 °C
CN1C(=O)C(c2c[nH]c3ccccc23)=C(c2cn(C)c3ccccc23)C1=O | 168 to 171 °C
CN(C)Cc1nc(CSCCNC(=C[N+](=O)[O-])NC2CC2)cs1 | 128 to 132 °C
COc1cccc([C@H]2O[C@H](CC(=O)Nc3cccc(CCC(=O)O)c3)C(=O)N(CC(C)(C)CO)c3ccc(Cl)cc32)c1OC | 141 to 144 °C
CC(C)c1ccc(N(Cc2ccc(N(C)C)cc2)C(=O)C2CCS(=O)(=O)c3ccccc32)cc1 (centres undefined) | 185 to 187 °C
O=C(Nc1ccccc1)O[C@H]1CSC(c2ccccc2)=N[C@@H]1c1ccccc1 (racemic) | 159 °C
CCCc1cc(N2CCN(c3ccncc3)CC2)ccc1OCCCC(=O)OCC | 65 to 67 °C
c1ccc(Nc2nnn[nH]2)cc1 | 208 to 209 °C
O=C1Nc2ccccc2C12COc1cc3c(cc12)CCO3 (centres undefined) | 105 to 107 °C
COC1(Cl)C=CC=CC1Oc1c(Cl)ncnc1Cl (centres undefined) | 88 to 89 °C
COc1ccc(O)c(C2C(=O)Nc3cccc(Br)c32)n1 (centres undefined) | 149 to 152 °C
COc1ccc(C=CC(=O)c2c(OC)cc(OC)cc2OC2OC(CO)C(O)C(O)C2NC(C)=O)cc1 (centres undefined) | 197 to 200 °C
COc1cc(O)c(C(=O)C=Cc2ccc(OC(C)=O)cc2)c(OC)c1 | 142 °C
CCOC(=O)c1sc(-n2c(=O)n(Cc3ccc(F)cc3)c3ccccc32)nc1C | 192 to 193 °C
COc1ccc2c(c1)c(OCc1ccccc1)c(C(=O)O)n2-c1ccccc1 | 123 °C
O=C(O)/C=C/c1ccc(Oc2c(-c3ccccc3)c(C(F)(F)F)cc3ccccc23)cc1 | 210 to 211 °C
COc1cc(OC)nc(Oc2c(Cl)cc(Cl)cc2C=O)n1 | 132 to 133 °C
Cc1cc(NC(=O)C(F)(c2ccccc2)c2nnn(CCCCCCCCCCCC(F)F)n2)c(C)c(C)c1O (centres undefined) | 96 °C
CCOP(=O)(Cc1ccc(NC(=S)Nc2cc(-c3cc4cc(F)c(F)cc4[nH]3)ccc2OC)cc1)OCC | 180 to 182 °C

Structure (SMILES) | melting point
COC(=O)c1cc(C)nn1-c1ncc(Cl)cc1Cl | 97 to 98 °C
CCCCCc1nc2c(N)nc3ccccc3c2n1CCCCNC(=O)Nc1ccccc1 | 159 to 160 °C
CCOC(=O)C1=C(C)NC(c2cscn2)=NC1c1ccccc1F (centres undefined) | 126 to 128 °C
Cc1nc2c(N)nc3ccccc3c2n1CCCNC(=O)c1ccccc1 | 230 to 231 °C
O=C(C=Cc1ccc(Cl)cc1)C(Cc1ccccc1)c1ccccc1 (centres undefined) | 113 to 115 °C
Cc1nc2c3c(ccn2c1C)C(=O)[C@H](OC(=O)C(C)(C)C)[C@@H](c1ccccc1)N3 | 185 to 187 °C
Cc1ccccc1C1c2cc(Cl)ccc2OC(=O)C1C(=O)N(C)Cc1cc(C(F)(F)F)cc(C(F)(F)F)c1 (centres undefined) | 148 to 149 °C
CCOC(=O)c1ccc(OCc2ccc(Cl)cc2)cc1 | 83 to 84 °C
CS(=O)(=O)c1ccc(-c2nc(C(F)(F)F)[nH]c2-c2ccc(Cl)c(Cl)c2)cc1 | 249 to 251 °C
N#CCOc1ccccc1OCC#N | 85 to 85.5 °C
COc1cnn(-c2cccc(COc3ccccc3)c2)c(=O)c1OC | 82 to 85 °C
CCCCCCCCCCCCc1ccc(NC)c([N+](=O)[O-])c1 | 54 °C
NC(=O)c1nnn(Cc2cccc(Cl)c2Cl)c1N | 224 to 226 °C
Nc1nc2c(s1)CCN(CC=Cc1ccc3[nH]ccc3c1)CC2 | 60 to 65 °C
COc1ccc(C2=NN(c3ccccn3)C(=O)CC2)cc1 | > 300 °C
O=CNc1nc(S)n[nH]1 | 260 to 262 °C
CNCCc1ccc2[nH]cc(S(=O)(=O)c3ccccc3)c2c1 | 151 to 154 °C
CC(=O)NCC(=O)c1ccccc1 | 69 °C
C=CCS(=O)CCNC(N)=O (centres undefined) | 66 °C
C=Cc1ccc2c(c1)c1ccccc1n2CC | 66 to 67 °C
COC(=O)c1sc(Nc2ccc(Cl)cc2)nc1C | 172 to 173 °C

Structure (SMILES) | melting point
Nn1c(=O)c(=O)[nH]c2c(Br)cc(Br)cc21 | 273 to 275 °C
O=C1C(=O)c2ccccc2C2=C1SCC1(CCN(S(=O)(=O)c3c(Cl)nc4sccn34)CC1)O2 | 265 to 267 °C
Cc1ccc(-c2ccc3c(c2)C=C(C(=O)Nc2ccc(CN(C(C)C)C(C)C)cc2)CCO3)cc1 | 152 to 153 °C
Cc1nnc(-c2ccc3occ(-c4ccc(C#N)cc4)c3c2)o1 | 201 to 202 °C
CC1=CC(OC(=O)c2cccn2C)C(O)C(C)(C)CC1=O (centres undefined) | 141 to 142 °C
CCCc1ccc(C(=O)Nc2ccc(C(=O)c3ccccc3)cc2)cc1 | 119 to 122 °C
COc1ccc(Cl)cc1-c1c(NCn2nnc3ccccc32)c(=O)[nH]c2ccc(C(F)(F)F)cc12 | 217 to 219 °C
Cc1ccccc1-n1ccc(=O)c(-c2ccnn2-c2ccccc2)n1 | 120 to 121 °C
OC(c1ccccc1)c1cc2ccnc(N(Cc3ccccc3)Cc3ccccc3)c2[nH]1 (centres undefined) | 53 to 61 °C
O[C@H]1CSC(c2ccccc2)=N[C@@H]1c1ccccc1 (racemic) | 142 °C
CC(C)(C)c1csc(NC(=O)c2ccccc2)c1C#N | 130 °C
Cc1ccccc1-c1c(NC(=O)Nc2c(C(C)C)cccc2C(C)C)oc2ccc(Cl)cc12 | 240 °C
Clc1ccc(OCc2nc3c(OCc4ccccc4)cccc3n2CCCC2CCN(CCCN3CCCCC3)CC2)cc1 | 58 to 60 °C
CC(C)(C)c1cccc(S(=O)(=O)n2c(C(C)(O)c3ccc(C(=O)O)s3)cc3cc(C(F)(F)F)ccc32)c1 (centres undefined) | 80 °C
NC(=O)N1C(=O)C(C(=O)c2cccs2)c2nc(Cl)ccc21 (centres undefined) | 222 to 224 °C
CN(c1ccc(O)cc1)c1cc2ccc(F)cc2c(O)n1 | 249 °C
C#CCN(CCC12CC3CC(CC(C3)C1)C2)C(=O)NCCCc1ccncc1 | 152 to 154 °C
COc1ccc2c(n1)C1(CO2)C(=O)N(Cc2ncc(Cl)n2C)c2ccccc21 (centres undefined) | 169 to 171 °C
CCCc1ccc(-c2cc(F)c(-c3ccc(CCC)s3)c(F)c2)cc1 | 64 °C
Cc1nonc1-n1cc(C(=O)O)c(=O)c2cc(F)c(Cl)nc21 | 242 to 247 °C
CC(C)=CCOc1ccc(C(=O)C=Cc2cccc([N+](=O)[O-])c2)c(O)c1 | 125 to 126 °C

Further lines, results first:

melting point | Structure (SMILES)
143 to 144 °C | COc1ccc2sc(C(N)=O)c(SC(C)C)c2c1
192 to 194 °C | Cc1cc(Br)ccc1C(CO)NC(=O)c1c(Cl)cncc1Cl (centres undefined)
110 to 115 °C | CCCN1C(=O)N2C[C@@H](Cc3ccccc3)N=C2c2[nH]c(C3(O)CCCC3)nc21
123 to 124 °C | O=C(O)C(=O)c1ccc(OCCCc2ccc3ccccc3c2)cc1
249 °C | O=C(Nc1ccc(CNc2nc(N3CCC3)nc3ccccc23)cc1)c1ccc(F)cc1
286 to 288 °C | COc1cc2[nH]c(C(=O)O)cc(=O)c2c2cccnc12
92 to 93 °C | COc1ccc2ncc(CO)cc2c1
254 to 256 °C | CC(=O)c1c2c(c(C)[nH]c1=O)CC(c1ccccn1)CC2 (centres undefined)
107 °C | Cc1cccc(NC(=O)NCC(=O)N2[C@@H](c3ccccc3F)SC[C@H]2C(=O)OC(C)(C)C)c1
> 260 °C | O=C(Cc1ccc2c(c1)Cc1c-2[nH]c(=O)c2nccn12)NCc1ccccc1
> 220 °C | CC(NC(=O)Cc1cc(F)cc(F)c1)C(=O)NC1CCCCCNC(=O)C1 (centres undefined)
129 to 131 °C | O=C(c1cc2ccccc2o1)C12CC3CC(CC(C3)C1)C2
153 to 155 °C | COc1ccc2[nH]cc(C3CCC4(CC3)OCCO4)c2c1
220 to 221 °C | CON=C1CN(c2c(F)cc3c(=O)c(C(=O)O)cn(C4CC4)c3c2Cl)CC12CNC2
103 to 106 °C | C[C@H](C(=O)O)c1ccc2cc(OCCCCCCc3ccc(O)c(O)c3)ccc2c1
116 to 117 °C | Cc1ccnc2c1C(=O)CC(c1cc(Cl)ccc1Cl)C2 (centres undefined)
98 to 100 °C | O=C(C1CCN(Cc2ccccc2)CC1)N1CCc2ccccc2C1
141 to 142 °C | CCNC(=O)N1C(=O)[C@H](O)[C@@H]1c1ccccc1

melting point | Structure (SMILES)
116 to 118 °C | COc1ccc(Cc2sccc2OC2OC(COC(C)=O)C(OC(C)=O)C(OC(C)=O)C2OC(C)=O)cc1 (centres undefined)
54 to 58 °C | COC(=O)c1ccc(OC)c(C(C)=O)c1
115 °C | CCCCC[C@@H](CNC(=O)Nc1c(OC(C)C)ccc2c1CCCC2)c1cccc2c1OCO2
155 °C | NS(=O)(=O)c1cc(CO)cc(N2CCCC2)c1Oc1ccccc1
95 °C | CCOC(CCCN1CCC(NC(=O)c2ccccc2)CC1)OCC
166 to 168 °C | CCOc1cc([C@H]2COCC[C@H]2NC(=O)c2ccc(C(=O)OC)cc2)ccc1OC
233 to 235 °C | CNC1CCN(c2nc3c(cc2F)c(=O)c(C(=O)O)cn3C2CC2)C1 (centres undefined)
118 to 123 °C | CN(C)Cc1nc(CSCCNc2ncc(CC3CCCO3)c(=O)[nH]2)cs1 (centres undefined)
90 to 91.5 °C | COc1ccc(/C=C(\C#N)c2cccc(Br)c2)cc1OC1CCCC1
166 to 168 °C | COc1cc(C)c(C(C)O)cc1NC(=S)N1CCN(c2cc(Cl)cc(Cl)c2)CC1 (centres undefined)
105 to 107 °C | CCCN(C1=C(O)CC(C2CCCC2)(C2CCCC2)OC1=O)c1cccc(NS(=O)(=O)c2ccccn2)c1
183 to 185 °C | CCOC(=O)Cc1c(C(=O)O)c(Br)c(C(=O)c2ccc(C)cc2)n1C
152 to 153 °C | CCN1C(=O)NC(=C(C(C)=O)C(C)=O)C1=O
198 to 201 °C | Cc1[nH]c(=O)n(-c2cc(C(=O)OC(C)C)c(Cl)cc2F)c(=O)c1Cl
102 to 105 °C | COC(=O)C(=O)c1cc2c3c(c1)CCN3CCC2
103 to 104 °C | OCCCc1cc2c(cc1O)CCO2
229 to 234 °C | CN(CCN[C@H]1CC[C@H](c2ccccc2)CC1)c1ccc2[nH]c(=O)oc2c1
145 to 148 °C | Cc1cccc(C)c1NC(=O)CN1CCN(CCCC(c2ccc(F)cc2)c2ccc(F)cc2)CCN1
